The values that follow come from ChEMBL document CHEMBL1134005, “2-Arylindole-3-acetamides: FPP-competitive inhibitors of farnesyl protein transferase” (Bioorg Med Chem Lett, 2001).

Bounds are passed on as bounds.

Assay [1] addresses T1, Protein farnesyltransferase (Homo sapiens, UniProt P49354+P49356). Description: Concentration required for the inhibitory activity against human Farnesyltransferase. Type of assay: protein-complex assay.
Assay [2] deals with T1, Protein farnesyltransferase. Description: Inhibition of HDJ-2 farnesylation in PSN-1 cells. The class given is functional, cell-based.
Assay [3] has the same target. Description: (§1) Inhibition of FPP incorporation into biotinylated K-Ras-derived peptide by human farnesyl transferase with 5 nM ATP. The class given is functional.
Assay [4] has the same target. Description: Inhibition of FPP incorporation into biotinylated K-Ras-derived peptide by human farnesyl transferase 5 nM ATP. Type of assay: functional.
Assay [5] shares this target. The assay is described as §1. The class given is functional. The source holds these as a separate data set.
The target of assay [6] is Geranylgeranyl transferase type I (Homo sapiens, UniProt P49354+P53609). Description: Inhibitory activity against human Geranylgeranyl transferase type I. Type of assay: protein-complex assay.
For assay [7], the target named is T1, Protein farnesyltransferase. Description: (§2) Inhibition of FPP incorporation into biotinylated K-Ras-derived peptide by human farnesyl transferase. Type of assay: functional.
Assay [8] shares this target. The assay is described as §2. Type of assay: functional. This is another data set of the same source.
For assay [9] the target is unchanged. The description is as §2. The class given is functional. This is another data set of the same source.
For assay [10] the target is unchanged. Described as §2. The class given is functional. The source holds these as a separate data set.
For assay [11] the target is unchanged. The description is as §2. Type of assay: functional. The source holds these as a separate data set.
The target is the same in assay [12]. The description is as §1. The class given is functional. This is another data set of the same source.
Assay [13] has the same target. The assay is described as §1. Type of assay: functional. This is another data set of the same source.
For assay [14] the target is unchanged. Description: Inhibition of HDJ-2 farnesylation in PSN-1 cells with 100 nM GGT1. Type of assay: functional, cell-based.
For assay [15] the target is unchanged. Description: Inhibition of K-Ras farnesylation in PSN-1 cells with 100 nM GGT1. The class given is functional, cell-based.
Assay [16] has the same target. Description: Inhibition of K-Ras farnesylation in PSN-1 cells without GGT1. The class given is functional, cell-based.
The target is the same in assay [17]. Description: Inhibition of HDJ-2 farnesylation in PSN-1 cells at without GGT1. The class given is functional, cell-based.

A word on the IC50: it is the concentration that gives 50% inhibition. Higher therefore signals a need for much substance. In assay [1], `CC(C)N(Cc1ccncc1)C(=O)Cc1c(-c2ccccc2Cl)[nH]c2ccccc12` had an IC50 of 46 nM. Same read-out and setting: with `CCCCn1c(-c2ccccc2)c(CC(=O)N(Cc2ccncc2)C(C)C)c2ccccc21` the figure was more than 50000 nM; with `CC(C)N(Cc1ccncc1)C(=O)Cc1cn(Cc2cccc(Br)c2)c2ccccc12`, 2150 nM; with `CC(C)N(Cc1ccncc1)C(=O)Cc1cn(Cc2ccccc2Br)c2ccccc12`, 572 nM. `N#CCCN(C(=O)Cc1c(-c2ccccc2)[nH]c2ccccc12)C1CC1` yielded an IC50 in assay [1] of 123 nM.

`CC(C)N(Cc1ccncc1)C(=O)Cc1c(-c2cccc(Cl)c2)[nH]c2ccccc12` had a concentration for half-maximal inhibition (IC50) in assay [1] of 172 nM.

In the case of `O=C(Cc1c(-c2ccccc2)[nH]c2ccccc12)N(Cc1ccncc1)C1CCC1`, the IC50 in [1] was found to be 160 nM. On the same count and under the same terms, with `CC(C#N)N(Cc1cccnc1)C(=O)Cc1c(-c2ccccc2)[nH]c2ccccc12` (stereo not given) the figure was 380 nM. `CC(C)N(Cc1ccncc1)C(=O)Cc1cn(Cc2ccc(Br)cc2)c2ccccc12` came in with an IC50 in assay [1] of 1740 nM.

`Cc1ccccc1-c1[nH]c2ccccc2c1CC(=O)N(Cc1ccncc1)C(C)C` registered an IC50 in assay [1] of 31 nM. Same read-out and setting: the value for `COc1ccccc1-c1[nH]c2ccccc2c1CC(=O)N(Cc1ccncc1)C(C)C` was 1370 nM; that for `O=C(Cc1c(-c2ccccc2)[nH]c2ccccc12)N(Cc1cccnc1)C1CC1` was 45 nM; that for `CC(C)N(Cc1ccco1)C(=O)Cc1c(-c2ccccc2)[nH]c2ccccc12` was 241 nM. The same measure, in the same setting: the value for `O=C(Cc1c(-c2ccccc2)[nH]c2ccccc12)N(Cc1ccncc1)C1CCCC1` was 4000 nM. On the same count and under the same terms, the value for `O=C(Cc1c(-c2ccccc2)[nH]c2ccccc12)N(Cc1ccncc1)C1CC1` was 171 nM; that for `CC(C)N(Cc1ccncc1)C(=O)Cc1c(-c2ccc(Br)cc2)[nH]c2ccccc12` was 14400 nM; that for `CC[C@@H](C)N(Cc1ccncc1)C(=O)Cc1c(-c2ccccc2)[nH]c2ccccc12` was 4590 nM. In assay [1], `CC[C@H](C)N(Cc1ccncc1)C(=O)Cc1c(-c2ccccc2)[nH]c2ccccc12` registered an IC50 of 77 nM. On the same count and under the same terms, with `CC(C)N(Cc1ccncc1)C(=O)Cc1c[nH]c2ccccc12` the figure was more than 50000 nM; with `CC(C)N(Cc1cccnc1)C(=O)Cc1c(-c2ccccc2)[nH]c2ccccc12`, 58 nM. `Cc1ccccc1-c1[nH]c2ccccc2c1CC(=O)N(CCC#N)C1CC1` registered an IC50 in assay [1] of 712 nM. Same read-out and setting: with `CCn1c(-c2ccccc2)c(CC(=O)N(Cc2ccncc2)C(C)C)c2ccccc21` the figure was 3800 nM; with `CC(C)N(Cc1cnccn1)C(=O)Cc1c(-c2ccccc2)[nH]c2ccccc12`, 400 nM; with `Cn1c(-c2ccccc2)c(CC(=O)N(CCC#N)C2CC2)c2ccccc21`, 182 nM. Same read-out and setting: the value for `O=C(Cc1c(-c2ccccc2)[nH]c2ccccc12)N(Cc1cccnc1)C1CCC1` was 44 nM. On the same count and under the same terms, with `CC(C)CN(Cc1ccccn1)C(=O)Cc1c(-c2ccccc2)[nH]c2ccccc12` the figure was 1500 nM; with `O=C(Cc1c(-c2ccccc2)[nH]c2ccccc12)N(Cc1cccnc1)Cc1cccnc1`, 2730 nM; with `CC(C)CN(Cc1cccnc1)C(=O)Cc1c(-c2ccccc2)[nH]c2ccccc12`, 2480 nM. As usually defined, the EC50 is the concentration that produces a half-maximal response. Higher therefore signals weaker potency. As to `Cc1ccccc1-c1c(CC(=O)N(Cc2ccncc2)C(C)C)c2ccccc2n1C`, in assay [2], the EC50 came out at 1060 nM. This compound gave an IC50 in [1] of 12 nM.

In turn, `CCCn1c(-c2ccccc2)c(CC(=O)N(Cc2ccncc2)C(C)C)c2ccccc21` showed a 50% inhibitory concentration (IC50) in [1] of 29900 nM. Still for that read-out and setting: with `CC(C)N(Cc1ccncc1)C(=O)Cc1c(-c2ccccc2)[nH]c2ccccc12` the figure was 41 nM. Turning to `CCN(Cc1ccncc1)C(=O)Cc1c(-c2ccccc2)[nH]c2ccccc12`, the IC50 was 47 nM in assay [3]; 20 nM in assay [4]; 190 nM in assay [5]; more than 20000 nM in assay [6]; 54 nM in assay [7]; 230 nM in assay [8]. The half-inhibitory concentration (IC50) came to 230 nM in [9]; 250 nM in assay [10]; 106 nM in assay [1]; 4000 nM in [11]; 43 nM in assay [12]; 65 nM in assay [13]. For the compound `CC(C)N(Cc1ccncc1)C(=O)Cc1c(-c2ccccc2)n(C)c2ccccc12`, the EC50 is 1000 nM in [14]; 1330 nM in assay [2]; 1800 nM in [15]; more than 30000 nM in assay [16]; 1980 nM in assay [17]. The same compound came in with an IC50 in assay [1] of 15 nM. The compound `CC(C)N(Cc1ccnn1C)C(=O)Cc1c(-c2ccccc2)[nH]c2ccccc12` yielded an IC50 in [1] of 245 nM.

`CC(C)N(Cc1ccccn1)C(=O)Cc1c(-c2ccccc2)[nH]c2ccccc12` gave an IC50 in assay [1] of 684 nM. The same measure, in the same setting: the value for `CC(C)N(Cc1ccoc1)C(=O)Cc1c(-c2ccccc2)[nH]c2ccccc12` was 110 nM; that for `CC(C)N(Cc1ccn(C)n1)C(=O)Cc1c(-c2ccccc2)[nH]c2ccccc12` was 568 nM. Compound `CC(C)N(Cc1cnn(C)c1)C(=O)Cc1c(-c2ccccc2)[nH]c2ccccc12` displayed an IC50 in [1] of 527 nM. `N#Cc1ccc(Cn2cncc2CN2CCN(C(=O)NC34CC5CC(CC(C5)C3)C4)CC2)cc1`: the IC50 worked out at 0.2 nM in assay [6] and 517 nM in [1]. Consider `CC(C)N(Cc1cncnc1)C(=O)Cc1c(-c2ccccc2)[nH]c2ccccc12`, for which half-maximal inhibition in assay [1] (IC50) was put at 232 nM. Still for that read-out and setting: the value for `O=C(Cc1c(-c2ccccc2)[nH]c2ccccc12)N(Cc1cccnc1)C1CCCC1` was 11400 nM; that for `N#CCCN(C(=O)Cc1c(-c2ccccc2Cl)[nH]c2ccccc12)C1CC1` was 1630 nM.
